Experimental data taken from the NIST ThermoML archive (doi:10.1016/j.jct.2013.03.012).
Numbers after ± are expanded uncertainties.

Conditions: for mass density: 101.33 kPa, Liquid, Levitation methods

[Ti] [titanium]
Conditions	mass density [kg/m3]
1350 K	4235 ± 40
1400 K	4223 ± 40
1450 K	4211 ± 40
1500 K	4200 ± 40
1550 K	4188 ± 40
1600 K	4176 ± 40
1650 K	4164 ± 40
1668 K	4160 ± 40
1700 K	4152 ± 40

Conditions	Normal melting temperature [°C]
Crystal, Heating curve in electrostatic levitation apparatus	1668.1 ± 2
